US9068228B2, “Method for screening ameliorants of dry skin caused by atopic dermatitis using bleomycin hydrolase activity as indicator” (Shiseido Company, Ltd., priority 2009, dated 2015)
“Also recorded” adds a separate entry of the source.

Assays:
Assay type in all cases: cell-based, human
MZF-1 = assay: Real-time RT-PCR of transcription factor expression under cytokines (FIG. 22)
Experimental: (§1) The transcription levels of BH and related factors were analyzed by quantitative real-time RT-PCR. Total RNA was extracted from cultured cells using Isogen (Nippon Gene, Tokyo, Japan) in accordance with the manufacturer's protocol. The total RNA was reverse-transcribed to cDNA using SuperScript™ II (Invitrogen, Carlsbad, Calif.). Real-time RT-PCR was carried out with the LightCycler Raid Cycler System using the LightCycler 480 SYBR Green I Master (Roche Diagnostics) in accordance with the manufacturer's protocol. Glyceraldehyde 3-phosphate dehydrogenase (GAPDH) was used as a reference gene. Specificity of the amplified fragments was confirmed by quantitative analysis of melting curves using LightCycler analytical software. The amounts of mRNA were standardized based on the mRNA of GAPDH and finally indicated as a ratio to mRNA of an untreated control.
(§2) An investigation was made of the cytokine-dependent regulation of these transcription factors.

IRF-1 mRNA = assay: as above
Experimental: as §1, §2

Sp-1 = assay: as above
Experimental: as §1, §2

IRF-2 = assay: as above
Experimental: as §1, §2

bleomycin hydrolase mRNA = assay: Effect of cytokines on bleomycin hydrolase mRNA expression by quantitative PCR (Experiment 5, FIG. 14); details: proliferative stage cultured keratinocytes, incubated 24 hours; IL-4 and TNF-α 0.1-10 ng/ml, IFN-γ 1.0-100 ng/ml
Experimental: (§3) Normal human epidermal keratinocytes derived from neonatal epidermis (Kurabo, Osaka, Japan) were cultured in EpiLife medium (Cascade Biologics, Portland, Oreg.) containing low-concentration (0.03 mM) calcium and HKGS Growth Supplement (Cascade Biologics). All cells were incubated at 37° C. while supplying 5% CO2 and were used within 4 passages. Cells were collected at 70% confluence, 100% confluence, 2 days after confluence and 2 days after confluence in 2 mM calcium.
The expression level of bleomycin hydrolase in keratinocytes was measured by quantitative PCR using the method described below. Measurement was carried out using the Light Cycler 480 (Roche Diagnostics GmbH, Mannheim, Germany), while Light Cycler FastStart DNA Master CYBR Green I was used for the reagent. 0.6 μl aliquots of each of the following bleomycin hydrolase primers and […] of water were added to 10 μl of SYBR Green I master mix to bring to a total volume of 20 μl followed by carrying out 45 cycles of PCR consisting of 15 seconds at 95° C., 20 seconds at 55° C. and 20 seconds at 72° C. The results obtained were corrected by comparing with the results for a housekeeping gene in the form of G3PDH. • Forward primer: […] (SEQ ID NO. 1) • Reverse primer: […] (SEQ ID NO. 2)
IL-4 (final concentration: 0.1, 1.0 or 10 ng/ml), TNF-α (final concentration: 0.1, 1.0 or 10 ng/ml) and IFN-γ (final concentration: 1.0, 10 or 100 ng/ml) were respectively added to proliferative stage cultured keratinocytes, and after incubating for 24 hours, RNA was collected using Isogen. Expression of bleomycin hydrolase mRNA was measured by quantitative PCR. Based on the results shown in FIG. 14, interleukin-4 (IL-4), which is a type of Th2 cytokine, was determined to down-regulate expression of bleomycin hydrolase.

BH mRNA = assay: Real-time RT-PCR analysis of BH gene expression under cytokines (Experiment 6, FIG. 20A); details: proliferative keratinocytes, 24 hours, ratio to untreated control
Experimental: as §3, §1
Since BH is an NMF-generating enzyme, it has the potential to be involved in the pathophysiology of AD. Accordingly, an investigation was made of the effects of cytokines Th1, Th2 and Th17 on BH gene expression. […] Similar results were obtained with differentiated keratinocytes (data not shown). A promoter assay was carried out in order to determine the role of IFN-γ in regulation of BH gene expression, and response elements were specified. […] In addition, IRF-1 and IRF-2 gene expression was inhibited using small interfering RNA (siRNA) in order to determine whether or not IRF-1/2 is an essential mediator of IFN-γ-induced down-regulation of BH.

BH promoter = BH promoter luciferase assay in transfected keratinocytes (FIG. 20B)
Experimental: The graphs indicate the effects of cytokines Th1, Th2 and Th17 on BH gene expression. […] The graphs indicate BH promoter activity in cultured keratinocytes in the presence of IFN-γ. Keratinocytes were transfected with pGL3-216 containing intact IRF-1/2 binding sites of BH promoter regions followed by treating for 24 hours with IFN-γ (upper panel). Keratinocytes were transfected with ΔpGL3-616 (IRF-1/2 deletion mutants) followed by treating for 24 hours in the presence or absence of IFN-γ or IL-4 at 10 ng/ml (lower panel). […] Keratinocytes were transfected with siRNA (40 nM) of IRF-1 or IRF-2 followed by culturing for 24 hours, treating with IFN-γ at 10 ng/ml and isolating RNA after further culturing for 24 hours. The panel on the right indicates the silencing effects of IRF-1 and IRF-2.
Keratinocytes were cultured in a 12-well tissue culture plate at a density of 5×10^4 cells/well, and were transfected using FuGene HD Transfection reagent (Roche Diagnostics, Basel, Switzerland) and 1 μg aliquots of each construct. […] Luciferase activity was analyzed using the Dual Luciferase Reporter Assay System (Promega) and Autolumat Plus Luminometer (Berthold Technologies, Bad Wildbad, Germany). […]

[1] = cultured keratinocytes, concentration not given

For “IL-4: Human IL-4 purchased from Peprotech EC; Th2 cytokine”, the “expression of MZF-1” value (MZF-1; IL-4 at 10 ng/ml) was “most effectively down-regulated”, the “expression of MZF-1” value (MZF-1; [1]) was “significantly inhibited; also recorded: down-regulated” and the “expression of IRF-1” value (IRF-1 mRNA; IL-4 at 100 ng/ml only) was “significantly enhanced”. For the same substance, the “expression of Sp-1” value (Sp-1; IL-4 at 10 ng/ml) was “most effectively down-regulated”, the “expression of Sp-1” value (Sp-1; [1]) was “significantly inhibited; also recorded: down-regulated” and the “expression of IRF-2” value (IRF-2; IL-4 at 100 ng/ml only) was “significantly enhanced”. For the same substance, the “expression of bleomycin hydrolase mRNA” value (bleomycin hydrolase mRNA) was “down-regulates” and the “expression of BH mRNA” value (BH mRNA) was “did not demonstrate any direct action whatsoever”.

For TNF-α, the “expression of bleomycin hydrolase mRNA” value (bleomycin hydrolase mRNA) was “significantly increases”.

In the case of “IL-13: Human IL-13 produced by R&D Systems Inc.; Th2 cytokine”, the “expression of MZF-1” value (MZF-1; [1]) is reported as “significantly inhibited”, the “expression of Sp-1” value (Sp-1; [1]) is reported as “significantly inhibited” and the “expression of BH mRNA” value (BH mRNA) is reported as “did not demonstrate any direct action whatsoever”.

“IFN-γ: Human IFN-γ purchased from Peprotech EC; Th1 cytokine” was tested, and the “expression of IRF-1 mRNA” value (IRF-1 mRNA; IFN-γ, dose-dependent) was “strongly up-regulates”, the “expression of IRF-2” value (IRF-2; in the presence of IFN-γ) was “up-regulated” and the “expression of bleomycin hydrolase mRNA” value (bleomycin hydrolase mRNA) was “significantly increases”. The “expression of BH mRNA” value (BH mRNA) was “down-regulated; also recorded: remarkably decreased”, the “expression of BH mRNA” value (BH mRNA; listed as IFN) was “significantly decreased” and the “BH promoter activity after deletion of IRF-1/2 binding sequence” value (BH promoter; keratinocytes transfected with IRF-1/2 deletion mutant, 10 ng/ml, 24 hours) was “no longer inhibited”. For the same substance, the BH promoter activity (BH promoter; proliferative keratinocytes transfected with pGL3-BH-616 containing IRF-1/2 binding sequence, IFN-γ 24 hours) was “down-regulated”.
